Reference: US20080027005A1, “PEPTIDES EFFECTIVE IN THE TREATMENT OF TUMORS AND OTHER CONDITIONS REQUIRING THE REMOVAL OR DESTRUCTION OF CELLS” (priority 2006, published 2008)
Where no end group is shown, it is not given here.

Test system: prostate
Test: Effect of S05B Peptides on tissue at sites of injection: intraprostatic infusion in rats, histology and prostate volume
Format: in vivo, Male Sprague-Dawley rats
Details: for Histological findings in prostate of treated rats: rat prostate after intraprostatic infusion 1.0 mg/kg, controls minimal or absent changes; for Calculated Mean Volume (mm^3) At 7 Days / Reduction in Mean Volume Compared to Controls / Histological Changes of Cell Death at 24 Hours / Histological Changes of Cell Death at 72 Hours: rat prostate; for Calculated Mean Volume (mm^3) At 7 Days: 7 days after intraprostatic infusion 1.0 mg/kg, V=4/3π(D/2)^3 from mean cross-sectional diameters, PBS control 519; for Reduction in Mean Volume Compared to Controls: 7 days, compared to PBS injection only; for Histological Changes of Cell Death at 24 Hours / Histological Changes of Cell Death at 72 Hours: intraprostatic infusion 300 μl of 1 mg/mL in PBS pH 7.4 (1.0 mg/kg), H & E sections
Method: The purpose of this example was to determine the effect of S05B Peptides on tissue at sites of injection.
Male Sprague-Dawley rats (300 gram weight range) were anesthetized with ether and given one of the above S05B Peptides by intraprostatic infusion, a control injection of normal saline or no injection after open surgical visualization of the prostate. The injections consisted of 300 μl of the S05B Peptide 1 mg/mL in PBS pH 7.4. (1.0 mg/kg) (n=85). Rats were painlessly sacrificed after 24 hours (n=18), 72 hours (n=35) and 7 days (n=32). Prostate glands were dissected, fixed in 10% buffered formalin for 24 hours, embedded in paraffin, sectioned, and stained with H & E. For each animal the entire prostate gland was embedded and sectioned. All stained sections were examined histologically. For each prostate at least 2 histological sections were examined, and for each histological section from the 7 day group two cross-sectional diameters (D) at 90° from each other were measured (total of >8 measurements per prostate). The mean of the cross-sectional diameters (D) for each group was used to estimate volume according to V=4/3π(D/2)^3 and the mean volume calculated for each group. Histological changes were assessed on the following scale:
+++ Present, Moderate and Diffuse
++++ Present, Diffuse and Extensive

**Q.** For IDQQVL [S05B-4], which “Histological findings in prostate of treated rats” value is on record?
**A.** Its value is “extensive cell death, necrosis, loss of glandular epithelium and atrophy”.

**Q.** What about the “Calculated Mean Volume (mm^3) At 7 Days” value of the same substance?
**A.** Its value is 358 mm^3.

**Q.** What about the “Reduction in Mean Volume Compared to Controls” value of the same substance?
**A.** The value was 31%.

**Q.** And the “Histological Changes of Cell Death at 24 Hours” value?
**A.** The value was “++”.

**Q.** What about the “Histological Changes of Cell Death at 72 Hours” value of the same substance?
**A.** Its value is “++”.

**Q.** Which results are given for DQQVLSRI [S05B-3]?
**A.** Histological findings in prostate of treated rats: extensive cell death, necrosis, loss of glandular epithelium and atrophy; Calculated Mean Volume (mm^3) At 7 Days: 289 mm^3; Reduction in Mean Volume Compared to Controls: 44%; Histological Changes of Cell Death at 24 Hours: +++; Histological Changes of Cell Death at 72 Hours: +++

**Q.** With DQQVLS [S05B-2] as the substance, how does the “Histological findings in prostate of treated rats” value read?
**A.** Its value is “extensive cell death, necrosis, loss of glandular epithelium and atrophy”.

**Q.** And the “Calculated Mean Volume (mm^3) At 7 Days” value?
**A.** Its value is 289 mm^3.

**Q.** And the “Reduction in Mean Volume Compared to Controls” value?
**A.** The value was 44%.

**Q.** And the “Histological Changes of Cell Death at 24 Hours” value?
**A.** The value was “+++”.

**Q.** What about the “Histological Changes of Cell Death at 72 Hours” value of the same substance?
**A.** Its value is “+++”.
